Counter-ions that a name gives are not always drawn.
Experiments:
[1] = target: muscarinic acetylcholine receptors; assay: Inhibition of specific binding of 3H-Oxotremorine-M (3H-Oxo) to rat cortex membranes; settings: rat cortex homogenate, 1.0 nM 3H-Oxotremorine, 30 min at 25° C.
From the text: The pharmacological properties of the compounds of the invention can be illustrated by determining their capability to inhibit the specific binding of ^3H-Oxotremorine-M (^3H-Oxo). Birdsdall N. J. M., Hulme E. C., and Burgen A. S. V. (1980). “The Character of Muscarinic Receptors in Different Regions of the Rat Brain”. Proc. Roy. Soc. London (Series B) 207, 1.
^3H-Oxo labels muscarinic receptor in the CNS (with a preference for agonist domains of the receptors). Three different sites are labelled by ^3H-Oxo. […] Using the present experimental conditions only the high and medium affinity sites are determined.
The inhibitory effects of compounds on ^3H-Oxo binding reflects the affinity for muscarinic acetylcholine receptors.
(§1) All preparations are performed at 0-4° C. unless otherwise indicated. Fresh cortex (0.1-1 g) from male Wistar rats (150-250 g) is homogenized for 5-10 s in 10 ml 20 mM Hepes pH: 7.4, with an Ultra-Turrax homogenizer. The homogenizer is rinsed with 10 ml of buffer and the combined suspension centrifuged for 15 min. at 40,000×g. The pellet is washed three times with buffer. In each step the pellet is homogenized as before in 2×10 ml of buffer and centrifuged for 10 min. at 40,000×g.
The final pellet is homogenized in 20 mM Hepes pH: 7.4 (100 ml per g of original tissue) and used for binding assay. Aliquots of 0.5 ml is added 25 μl of test solution and 25 μl of ^3H-Oxotremorine (1.0 nM, final concentration) mixed and incubated for 30 min. at 25° C. Non-specific binding is determined in triplicate using arecoline (1 μg/ml, final concentration) as the test substance. After incubation samples are added 5 ml of ice-cold buffer and poured directly onto Whatman GF/C glass fiber filters under suction and immediately washed 2 times with 5 ml of ice-cold buffer. The amount of radioactivity on the filters are determined by conventional liquid scintillation counting. Specific binding is total binding minus non specific binding.
Test substances are dissolved in 10 ml water (if necessary heated on a steambath for less than 5 min.) at a concentration of 2.2 mg/ml. 25-75% inhibition of specific binding must be obtained before calculation of IC50.
The test value will be given as IC50 (the concentration (nM) of the test substance which inhibits the specific binding of ^3H-Oxo by 50%).
(§2) IC50=(applied test substance concentration)×(Cx/Co−Cx)nM
(§3) where Co is specific binding in control assays and Cx is the specific binding in the test assay. (The calculations assume normal mass-action kinetics).

[2] = target: T1, muscarinic receptors (M1-site, pirenzepine sensitive site) (Rattus norvegicus, UniProt P08482); assay: Inhibition of 3H-PRZ (pirenzepine, [N-methyl-3H]) binding to rat cerebral cortex membranes; settings: 1.0 nM 3H-Pirenzepine, 60 min at 20° C.
T1 construct: Fresh cortex (0.1-1 g) from male Wistar rats (150-200 g) is homogenized; from tissue; host or cells: rat (male Wistar) cerebral cortex membranes
T1 sequence (P08482 1-460): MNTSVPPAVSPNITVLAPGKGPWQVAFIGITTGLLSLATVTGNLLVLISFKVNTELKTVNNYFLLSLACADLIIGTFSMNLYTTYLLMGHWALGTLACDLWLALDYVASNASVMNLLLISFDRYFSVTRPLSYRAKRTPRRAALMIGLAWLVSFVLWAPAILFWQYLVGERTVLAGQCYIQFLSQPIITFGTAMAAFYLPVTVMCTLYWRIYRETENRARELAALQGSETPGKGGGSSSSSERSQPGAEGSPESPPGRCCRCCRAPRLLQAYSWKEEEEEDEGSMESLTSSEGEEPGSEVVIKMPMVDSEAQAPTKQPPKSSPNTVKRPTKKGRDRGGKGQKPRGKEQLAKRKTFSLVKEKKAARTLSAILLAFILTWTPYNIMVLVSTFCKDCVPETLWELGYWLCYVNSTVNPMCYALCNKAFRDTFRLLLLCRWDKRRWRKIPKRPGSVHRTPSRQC
Procedure: Furthermore the pharmacological properties of the compounds of the invention can also be illustrated by determining their capability to inhibit ^3H-PRZ (pirenzepine, [N-methyl-^3H]) binding to rat cerebral cortex membranes. Pirenzepine binds selectively to subtype of muscarinic receptors. Historically the type is named the M1-site, whereas pirenzepine sensitive site would be more appropriate. Although selective for M1-sites pirenzepine also interact with M2-sites.
as §1, with “rats (150-200” for “rats (150-250”, “5-10 s.” for “5-10 s”, “with 2×10” for “with 10”, “15 min” for “15 min.”, “in 3×10” for “in 2×10”, “10 min” for “10 min.”
The final pellet is homogenized in 20 mM Hepes pH: 7.4 (100 ml per g of original tissue) and used for binding assay. Aliquots of 0.5 ml is added 20 μl of test solution and 25 μl of ^3H-Pirenzepine (1.0 nM, final conc.), mixed and incubated for 60 min at 20° C. Non-specific binding is determined in triplicate using atropine (1 μg/ml, final conc.) as the test substance. After incubation samples are added 5 ml of ice-cold buffer and poured directly onto Whatman GF/C glass fiber filters under suction and immediately washed 2 times with 5 ml of ice-cold buffer. The amount of radioactivity on the filters are determined by conventional liquid scintillation counting. Specific binding is total binding minus non-specific binding.
Test substances are dissolved in 10 ml water, at a concentration of 0.22 mg/ml. 25-75% inhibition of specific binding must be obtained before calculation of IC50.
The test value will be given as IC50 (the concentration (nM) of the test substance which inhibits the specific binding of ^3H-PRZ by 50%).
as §2, §3

| IC50 [1] | IC50 [2] | SMILES |
| --- | --- | --- |
| 72 nM | 48 nM | COc1cccc(C#CC(C)Oc2nsnc2OC2CN3CCC2C3)c1 (stereo not drawn) [Compound 17, Endo 3-(3-[4-(3-methoxyphenyl)-3-butyn-2-yloxy]-1,2,5-thiadiazol-4-yloxy)-1-azabicyclo[2.2.1]heptane, oxalate] |
| 302 nM | 100 nM | CC(C#Cc1ccc(F)cc1)=CCOc1nsnc1OC1CN2CCC1C2 (stereo not drawn) [Compound 21, Endo (Z)-3-(3-(5-(4-fluorophenyl)-3-methyl-2-penten-4-yn-1-yloxy)-1,2,5-thiadiazol-4-yloxy)-1-azabicyclo[2.2.1]heptane] |
| 1 nM | 4.7 nM | C(#Cc1ccsc1)COc1nsnc1OC1CN2CCC1C2 (stereo not drawn) [Compound 36, Endo 3-(3-[3-(3-thienyl)-2-propyn-1-yloxy]-1,2,5-thiadiazol-4-yloxy)-1-azabicyclo[2.2.1]heptane, oxalate] |
| 8.3 nM | 5.3 nM | FC(F)(F)C(F)(F)C(F)(F)COc1nsnc1OC1CN2CCC1C2 (stereo not drawn) [Compound 27, Endo 3-(3-(2,2,3,3,4,4,4-heptafluorobutyl-1-oxy)-1,2,5-thiadiazol-4-yloxy)-1-azabicyclo[2.2.1]heptane, oxalate] |
| 1.3 nM | 3.9 nM | C(#Cc1ccoc1)COc1nsnc1OC1CN2CCC1C2 (stereo not drawn) [Compound 26, Endo 3-(3-(3-(3-furyl)-2-propyn-1-yloxy)-1,2,5-thiadiazol-4-yloxy)-1-azabicyclo[2.2.1]heptane, oxalate] |
| 1.8 nM | 43 nM | FC(F)(F)COc1nsnc1OC1CN2CCC1C2 (stereo not drawn) [Compound 40, Endo 3-(3-[2,2,2-trifluoroethyl-1-oxy]-1,2,5-thiadiazol-4-yloxy)-1-azabicyclo[2.2.1]heptane, oxalate] |
| 148 nM | 129 nM | Fc1cc(C(F)(F)F)ccc1COc1nsnc1OC1CN2CCC1C2 (stereo not drawn) [Compound 16, Endo 3-(3-[2-fluoro-4-(trifluoromethyl)-benzyloxy]-1,2,5-thiadiazol-4-yloxy)-1-azabicyclo[2.2.1]heptane, oxalate] |
| 105 nM | 56 nM | COc1cccc(C#CC(Oc2nsnc2OC2CN3CCC2C3)C(C)C)c1 (stereo not drawn) [Compound 39, Endo 3-(3-[1-(3-methoxyphenyl)-4-methyl-1-pentyn-3-yloxy]-1,2,5-thiadiazol-4-yloxy)-1-azabicyclo[2.2.1]heptane, oxalate] |
| 2.2 nM | 8.7 nM | C(#Cc1cccs1)COc1nsnc1O[C@H]1CN2CC[C@@H]1C2 [Compound 37, Endo 3-(3-[3-(2-thienyl)-2-propyn-1-yloxy]-1,2,5-thiadiazol-4-yloxy)-1-azabicyclo[2.2.1]heptane, oxalate] |
| – | 3.4 nM | FC(F)(F)CCCSc1nsnc1OC1CN2CCC1C2 (stereo not drawn) [Compound 30, Endo 3-(3-(4,4,4-trifluorobutylthio)-1,2,5-thiadiazol-4-yloxy)-1-azabicyclo-[2.2.1]heptane, oxalate] |
| – | 9.2 nM | C1CC(COc2nsnc2OC2CN3CCC2C3)C1 (stereo not drawn) [Compound 41, Endo 3-(3-cyclobutylmethyloxy-1,2,5-thiadiazol-4-yloxy)-1-azabicyclo-[2.2.1]heptane, oxalate] |
| – | 11 nM | FC(F)(F)c1cccc(C#CCOc2nsnc2OC2CN3CCC2C3)c1 (stereo not drawn) [Compound 20, Endo 3-(3-(3-(3-trifluoromethylphenyl)-2-propynyl-1-oxy)-1,2,5-thiadiazol-4-yloxy)-1-azabicyclo[2.2.1]heptane, oxalate] |
| – | 23 nM | N#Cc1ccc(CSc2nsnc2OC2CN3CCC2C3)cc1 (stereo not drawn) [Compound 31, Endo 3-(3-[4-cyanobenzylthio]-1,2,5-thiadiazol-4-yloxy)-1-azabicyclo-[2.2.1]heptane, oxalate] |
| 5.5 nM | – | Fc1cccc(C#CCOc2nsnc2OC2CN3CCC2C3)c1 (stereo not drawn) [Compound 28, Endo 3-(3-(3-(3-fluorophenyl)-2-propyn-1-yloxy)-1,2,5-thiadiazol-4-yloxy-1-azabicyclo[2.2.1]heptane, oxalate] |

Continued, compound first:

| SMILES | IC50 [1] | IC50 [2] |
| --- | --- | --- |
| Fc1ccc(COc2nsnc2OC2CN3CCC2C3)cc1 (stereo not drawn) [Compound 9, Endo 3-(3-[4-fluorobenzyloxy]-1,2,5-thiadiazol-4-yloxy)-1-azabicyclo-[2.2.1]heptane, oxalate] | 25 nM | 30 nM |
| FC(F)(F)Oc1ccc(COc2nsnc2OC2CN3CCC2C3)cc1 (stereo not drawn) [Compound 14, Endo 3-(3-[4-trifluoromethoxybenzyloxy]-1,2,5-thiadiazol-4-yloxy)-1-azabicyclo[2.2.1]heptane, oxalate] | 49 nM | 32 nM |
| CC(C)=CCOc1nsnc1OC1CN2CCC1C2 (stereo not drawn) [Compound 7, Endo 3-(3-[3-methyl-2-butenyl-1-oxy]-1,2,5-thiadiazol-4-yloxy)-1-azabicyclo[2.2.1]heptane, oxalate] | 10 nM | 24 nM |
| Fc1ccc(C#CCOc2nsnc2OC2CN3CCC2C3)cc1 (stereo not drawn) [Compound 4, Endo 3-(3-[3-(4-fluorophenyl)-2-propynyl-1-oxy]-1,2,5-thiadiazol-4-yloxy)-1-azabicyclo[2.2.1]heptane, oxalate] | 7.9 nM | 8.3 nM |
| COCCOc1nsnc1OC1CN2CCC1C2 (stereo not drawn) [Compound 13, Endo 3-(3-methoxyethoxy-1,2,5-thiadiazol-4-yloxy)-1-azabicyclo[2.2.1]heptane, oxalate] | 4.3 nM | 44 nM |
| COc1cccc(C#CCOc2nsnc2OC2CN3CCC2C3)c1 (stereo not drawn) [Compound 6, Endo 3-(3-[3-(3-methoxyphenyl)-2-propynyl-1-oxy]-1,2,5-thiadiazol-4-yloxy)-1-azabicyclo[2.2.1]heptane, oxalate] | – | 17 nM |
| C(CC1CC1)Oc1nsnc1OC1CN2CCC1C2 (stereo not drawn) [Compound 8, Endo 3-(3-[2-cyclopropylethyl-1-oxy]-1,2,5-thiadiazol-4-yloxy)-1-azabicyclo[2.2.1]heptane, oxalate] | 4.9 nM | 9.8 nM |
| FCCSc1nsnc1OC1CN2CCC1C2 (stereo not drawn) [Compound 34, Endo 3-(3-[2-fluoroethyl-1-thio]-1,2,5-thiadiazol-4-yloxy)-1-azabicyclo-[2.2.1]heptane, oxalate] | – | 31 nM |
| C(#Cc1cccnc1)COc1nsnc1OC1CN2CCC1C2 (stereo not drawn) [Compound 23, Endo 3-(3-(3-pyridyl)-2-propyn-1-yloxy)-1,2,5-thiadiazol-4-yloxy)-1-azabicyclo[2.2.1]heptane, dioxalate] | 1.6 nM | 13 nM |

From patent US6720342B2, “Heterocyclic compounds and their preparation and use” (Novo Nordisk A/S, priority 1996, dated 2004)
